{
  "source": "patent US11274131B2",
  "about": "“IgM-mediated receptor clustering and cell modulation” (MAYO FOUNDATION FOR MEDICAL EDUCATION AND RESEARCH, priority 2007, dated 2022)",
  "key": {"[1]": {"tested_on": "human DC", "test": "Cap formation / FRET on human DC", "format": "cell-based", "procedure": "(§1) DC of murine origin were stained with anti-Class II-FITC (MF/114.15.2), and either anti-CD80-PE (16.10A1)/CD86-PE (GL-1), or anti-CD11c-PE (N418). DC of human origin were stained with anti-Class II-FITC (LN3) and anti-CD80-PE (2D10.4)/CD86-PE (IT2.2). All incubations were carried out for 15 minutes at 37° C. The cells were subsequently stimulated with 10 μg/ml of control (sHIgM39) or B7-DC XAb, and were observed every 5 minutes using time lapse confocal imaging at 40.times magnification with a LSM510 Laser scanning confocal microscope having a 37° C. stage (Carl-Zeiss Inc, Oberkochen, Germany). Jurkat cells were pre stained with anti-human CD28-FITC (CD28.2) for 15 minutes, followed by addition of 10 μg/ml of MTAb control antibody sHIgM39, MTAb sHIgM22, or anti-K^b IgM (28-13-3), and were and analyzed in the same manner as the DC.\nThe flow cytometry approach for FRET was used as a way of quantifying molecular aggregation on the cell surface and was carried out as described previously (Block et al. (2001) J. Immunol. 167:821-826). Briefly, DC of murine origin were stained with anti-Class II APC (M5/114.15.2) and anti-CD80-PE (16.10A1)/CD86-PE(GL-1) for 15 minutes to visualize FRET between these molecules. […] Data collected as log10 fluorescence were analyzed using CELLQUEST™ (BD Biosciences). […]"}, "[2]": {"tested_on": "B16 melanoma cells", "conditions": "mice injected intravenously with antibody directly or DCs pre-treated with antibody and tumor antigen; cited from earlier work"}, "[3]": {"tested_on": "NF-κB", "test": "NFκB activation assay in mouse DC", "format": "cell-based", "procedure": "DC of murine or human origin were stimulated with 10 μg/ml of control antibody or the MTAb B7-DC XAb for 30 minutes, while stimulation of oligodendrocytes was achieved by addition of 10 μg/ml of MTAb sHIgM39, 04, or sHIgM22 for same period of time. All groups were fixed and permeabilized using a Cytofix/Cytoperm Kit (BD PharMingen, San Diego, Calif.) for 20 minutes on ice. Subsequently, rabbit antibody against a C terminal peptide of NF-kB (sc372) was added, incubated for 30 minutes at 4° C. and washed three times with Cytoperm Buffer. Anti-rabbit FITC was used to detect the bound sc372 antibody by incubating the cells for 30 minutes (green). Cells were washed three times before the nuclei were stained with DAPI (blue) (Sigma Aldrich). The cells were then harvested from the plate, cytospin slides were made, and cells were visualized using a LSM510 Laser scanning confocal microscope (Carl-Zeiss Inc, Oberkochen, Germany) at 40.times magnification."}, "[4]": {"tested_on": "OT-II CD4+CD25+ Treg cells", "test": "Conversion of OT-II Tregs to Th17 phenotype by antibody-treated DCs", "format": "cell-based, mouse", "procedure": "FIG. 16 is a series of plots showing conversion of OT-II CD4 Treg cells to a Th17 phenotype by co-incubation with DCs expressing the Kb-peptide constructs treated with MTabs. OT-II CD4+CD25+ splenic Tregs were isolated by MACS and added 1:1 to DCs pulsed with Ovalbumin and treated with hIgM12, hIgM22, or 28-13-3. After 48 hours, the T cells were harvested, stained with CD4, and internally stained with FoxP3 PE and IL-17 APC. Expression was assayed by flow cytometry, and cells were gated on CD4.\nThis was measured by loss of FoxP3 expression and gain of IL-17 expression, corresponding to loss of a repressive phenotype and gain of an effector phenotype. Studies were conducted to compare the ability of wild type DCs or B7DC−/− B7DC reconstituted DCs to B7DC−/− transduced with the Kb-peptide constructs to convert Tregs to Th17 polarized T cells. DCs were pulsed with 10 ug/mL ovalbumin and treated with 10 ug/mL of either hIgM12, hIgM22, or 28-13-3, 24 hours prior to addition of T cells. Splenic OT-II Tregs were isolated by MACs and added to DC cultures at a 1:1 ratio. After 48 hours of co-incubation, T cells were harvested, stained with CD4 PerCP, and permeabilized and stained with FoxP3 PE and IL-17 APC. Samples were run by flow cytometry and cells were gated by high CD4 expression. Conversion was measured by loss of FoxP3 expression and gain of IL-17 expression."}, "[5]": {"tested_on": "mouse DC", "test": "Cap formation / FRET on mouse DC", "format": "cell-based", "procedure": "as §1\nThe flow cytometry approach for FRET was used as a way of quantifying molecular aggregation on the cell surface and was carried out as described previously (Block et al. (2001) J. Immunol. 167:821-826). Briefly, DC of murine origin were stained with anti-Class II APC (M5/114.15.2) and anti-CD80-PE (16.10A1)/CD86-PE(GL-1) for 15 minutes to visualize FRET between these molecules. Monitoring for FRET induced by interaction between TREM-2 and Class-II molecules was achieved by incubating the cells with the abovementioned anti-Class-II antibody and anti-TREM-2-PE (237920). DC of human origin were stained for 15 minutes with APC-anti class II (LN3) and anti-CD80-PE (2D10.4)/CD86-PE (IT2.2). In experiments involving blocking of B7-DC, both fluorophore labeled antibodies and purified anti-mouse B7-DC (TY-25) or purified anti-human B7-DC (MIH18) IgG monoclonal antibody was added at 10 μg/ml for 15 minutes. Jurkat cells were stained with anti-human Class I-PE (G46-2.6) or anti-human CD4 (RPA-T4) and anti-human CD28-APC (CD28.2) for 15 minutes. Cells were stimulated with control antibody or B7-DC XAb or purified anti-mouse class II IgM (25-9-3) (experiments involving DC) or sHIgM22 (experiments involving Jurkat cells) and aliquots from different groups were taken at different time points. After 15 minutes of incubation, the cells were washed and fixed in 2% paraformaldehyde prior to analysis by FACS using a FACSCALIBER™ (BD Biosciences, Franklin Lakes, N.J.). Data collected as log10 fluorescence were analyzed using CELLQUEST™ (BD Biosciences). The FRET signal was visualized in FL3 channel (650-670 nm LP)."}},
  "data": [
    {"substance": "B7-DC XAb: human monoclonal IgM from a Waldenstrom's macroglobulinemia patient that binds and cross-links B7-DC on DC", "values": [
      {"measurement": "reorganization of tagged class II, CD80, CD86 into a capped cluster", "setting": "[1]", "value": "reorganized into a distinctly capped cluster"},
      {"measurement": "FRET among class II, CD80 and CD86", "setting": "[1]; within ten minutes", "value": "strong FRET signal"},
      {"measurement": "protection against B16 melanoma challenge", "setting": "[2]", "value": "protected against challenge by B16 melanoma cells"},
      {"measurement": "NF-κB activation", "setting": "[3]; DC from CD40 KO mice", "value": "absence of NF-κB activation"},
      {"measurement": "NF-κB activation", "setting": "[3]; DC from wild type mice", "value": "activating NF-κB"},
      {"measurement": "NF-κB mobilization", "setting": "[3]; TREM-2 KO cells", "value": "mobilization of NF-κB"},
      {"measurement": "conversion of Tregs to Th17 polarized cells", "setting": "[4]; knockout DCs expressing Kb-12p9A", "value": "responded"},
      {"measurement": "conversion of Tregs to Th17 polarized cells", "setting": "[4]; wild type DCs and B7DC reconstituted knockouts, 10 ug/mL", "value": "converted Tregs to Th17 polarized cells"},
      {"measurement": "co-capping of CD80 and CD86 or CD11c with class II molecules", "setting": "[5]; DC from CD80/CD86 double knock out and MHC class II knock out mice", "value": "still occurred"},
      {"measurement": "reorganization of tagged class II, CD80, CD86 into a capped cluster", "setting": "[5]; mouse DC", "value": "reorganized into a distinctly capped cluster"},
      {"measurement": "FRET among class II, CD80 and CD86", "setting": "[5]; mouse DC, within ten minutes", "value": "strong FRET signal"},
      {"measurement": "time to association of TREM-2 with class II molecules by FRET", "setting": "[5]; mouse DC, increased by 15 minutes", "value": "≤ 5", "unit": "min"}
    ]}
  ]
}
